In article PMC10893631, “Receptor-based pharmacophore modeling, molecular docking, synthesis and biological evaluation of novel VEGFR-2, FGFR-1, and BRAF multi-kinase inhibitors” (BMC Chemistry, 2024):

Key:
Experiment in all cases: NCI SRB growth inhibition (single dose 10 µM / five-dose)
Type in all cases: cell-based, human
[1] = system: SK-MEL-2; conditions: Homo sapiens
Outline: (§1)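 After a 24 h pre-incubation, cells received drug at five serially diluted concentrations; two untreated plates per line were TCA-fixed at drug addition as Tz. Adherent plates were fixed with cold TCA, stained with SRB and washed with 1% acetic acid.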

[2] = system: EKVX; conditions: Homo sapiens; for inhibition at 10 µM: EKVX (Non-small cell lung cancer), read-out: GI%
Outline: as §1

[3] = system: M14; conditions: Homo sapiens; for inhibition at 10 µM: M14 (Melanoma), read-out: GI%
Outline: as §1

[4] = system: SF-295; conditions: Homo sapiens; for inhibition at 10 µM: SF-295 (CNS cancer), read-out: GI%
Outline: as §1

[5] = system: BT-549; conditions: Homo sapiens; for inhibition at 10 µM: BT-549 (Breast cancer), read-out: GI%
Outline: as §1

[6] = system: A549/ATCC; conditions: Homo sapiens; for inhibition at 10 µM: A549/ATCC (Non-small cell lung cancer), read-out: GI%
Outline: as §1

[7] = system: 786–0; conditions: Homo sapiens; 786–0 (Renal cancer), 10 µM; read-out: GI%
Outline: as §1

[8] = system: CAKI-1; conditions: Homo sapiens; for inhibition at 10 µM: CAKI-1 (Renal cancer), read-out: GI%
Outline: as §1

[9] = system: SK-MEL-5; conditions: Homo sapiens; for inhibition at 10 µM: SK-MEL-5 (Melanoma), read-out: GI%
Outline: as §1

[10] = system: CCRF-CEM; conditions: Homo sapiens; for inhibition at 10 µM: CCRF-CEM (Leukemia), read-out: GI%
Outline: as §1

[11] = system: OVCAR-5; conditions: Homo sapiens; for inhibition at 10 µM: OVCAR-5 (Ovarian cancer), read-out: GI%
Outline: as §1

[12] = system: UACC-257; conditions: Homo sapiens; for inhibition at 10 µM: UACC-257 (Melanoma), read-out: GI%
Outline: as §1

[13] = system: NCI-H226; conditions: Homo sapiens; for inhibition at 10 µM: NCI-H226 (Non-small cell lung cancer), read-out: GI%
Outline: as §1

[14] = system: TK-10; conditions: Homo sapiens; for inhibition at 10 µM: TK-10 (Renal cancer), read-out: GI%
Outline: as §1

[15] = system: HOP-92; conditions: Homo sapiens; for inhibition at 10 µM: HOP-92 (Non-small cell lung cancer), read-out: GI%
Outline: as §1

[16] = system: MDA-MB-231/ATCC; conditions: Homo sapiens; for inhibition at 10 µM: MDA-MB-231/ATCC (Breast cancer), read-out: GI%
Outline: as §1

[17] = system: HCC-2998; conditions: Homo sapiens; for inhibition at 10 µM: HCC-2998 (Colon cancer), read-out: GI%
Outline: as §1

[18] = system: HS 578 T; conditions: Homo sapiens; for inhibition at 10 µM: HS 578 T (Breast cancer), read-out: GI%
Outline: as §1

[19] = system: SK-MEL-28; conditions: Homo sapiens; for inhibition at 10 µM: SK-MEL-28 (Melanoma), read-out: GI%
Outline: as §1

[20] = system: MALME-3 M; conditions: Homo sapiens; for inhibition at 10 µM: MALME-3 M (Melanoma), read-out: GI%
Outline: as §1

[21] = system: NCI/ADR-RES; conditions: Homo sapiens; for inhibition at 10 µM: NCI/ADR-RES (Ovarian cancer), read-out: GI%
Outline: as §1

[22] = system: ACHN; conditions: Homo sapiens; for inhibition at 10 µM: ACHN (Renal cancer), read-out: GI%
Outline: as §1

[23] = system: SR; conditions: Homo sapiens; for inhibition at 10 µM: SR (Leukemia), read-out: GI%
Outline: as §1

[24] = system: MOLT-4; conditions: Homo sapiens; for inhibition at 10 µM: MOLT-4 (Leukemia), read-out: GI%
Outline: as §1

[25] = system: RXF 393; conditions: Homo sapiens; for inhibition at 10 µM: RXF 393 (Renal cancer), read-out: GI%
Outline: as §1

[26] = system: HT29; conditions: Homo sapiens, HT-29; HT29 (Colon cancer), 10 µM; read-out: GI%
Outline: as §1

COc1ccc(-c2nc3cc(C(=O)NN=Cc4ccccc4O)ccc3[nH]2)cc1 [8h, N'-(2-Hydroxybenzylidene)-2-(4-methoxyphenyl)-1H-benzo[d]imidazole-5-carbohydrazide]
GI50 ([1]; SK-MEL-2, Melanoma, five-dose): 5.17 µM
inhibition at 10 µM [2]: 92.2%
GI50 ([2]; EKVX, Non-small cell lung cancer, five-dose): 3.24 µM
inhibition at 10 µM [3]: > 100%
GI50 ([3]; M14, Melanoma, five-dose): 3.65 µM
inhibition at 10 µM [4]: > 100%
GI50 ([4]; SF-295, CNS cancer, five-dose): 1.26 µM
inhibition at 10 µM [5]: > 100%
GI50 ([5]; BT-549, Breast cancer, five-dose): 6.99 µM
inhibition at 10 µM [6]: > 100%
GI50 ([6]; A549/ATCC, Non-small cell lung cancer, five-dose): 3.03 µM
inhibition at 10 µM [7]: > 100%
inhibition at 10 µM [8]: > 100%
GI50 ([8]; CAKI-1, Renal cancer, five-dose): 1.78 µM
inhibition at 10 µM [9]: > 100%
GI50 ([9]; SK-MEL-5, Melanoma, five-dose): 1.73 µM
inhibition at 10 µM [10]: 94.3%
GI50 ([10]; CCRF-CEM, Leukemia, five-dose): 0.92 µM
inhibition at 10 µM [11]: > 100%
GI50 ([11]; OVCAR-5, Ovarian cancer, five-dose): 6.55 µM
inhibition at 10 µM [12]: 85%
GI50 ([12]; UACC-257, Melanoma, five-dose): 6.32 µM
inhibition at 10 µM [13]: > 100%
GI50 ([13]; NCI-H226, Non-small cell lung cancer, five-dose): 6.94 µM
inhibition at 10 µM [14]: > 100%
GI50 ([14]; TK-10, Renal cancer, five-dose): 6.19 µM
inhibition at 10 µM [15]: > 100%
GI50 ([15]; HOP-92, Non-small cell lung cancer, five-dose): 2.83 µM
inhibition at 10 µM [16]: 98.7%
GI50 ([16]; MDA-MB-231/ATCC, Breast cancer, five-dose): 4.48 µM
inhibition at 10 µM [17]: 99.6%
GI50 ([17]; HCC-2998, Colon cancer, five-dose): 4.43 µM
inhibition at 10 µM [18]: > 100%
GI50 ([18]; HS 578 T, Breast cancer, five-dose): 0.94 µM
inhibition at 10 µM [19]: > 100%
GI50 ([19]; SK-MEL-28, Melanoma, five-dose): 2.96 µM
inhibition at 10 µM [20]: > 100%
GI50 ([20]; MALME-3 M, Melanoma, five-dose): 1.77 µM
inhibition at 10 µM [21]: 63.2%
GI50 ([21]; NCI/ADR-RES, Ovarian cancer, five-dose): 6.74 µM
inhibition at 10 µM [22]: > 100%
GI50 ([22]; ACHN, Renal cancer, five-dose): 3.02 µM
inhibition at 10 µM [23]: 85.9%
GI50 ([23]; SR, Leukemia, five-dose): 1.17 µM
inhibition at 10 µM [24]: 88.5%
GI50 ([24]; MOLT-4, Leukemia, five-dose): 1.7 µM
inhibition at 10 µM [25]: > 100%
GI50 ([25]; RXF 393, Renal cancer, five-dose): 6.29 µM
inhibition at 10 µM [26]: > 100%

COc1ccc(-c2nc3cc(C(=O)NN=Cc4cccc(O)c4)ccc3[nH]2)cc1 [8i, N'-(3-Hydroxybenzylidene)-2-(4-methoxyphenyl)-1H-benzo[d]imidazole-5-carbohydrazide]
inhibition at 10 µM ([1]; SK-MEL-2 (Melanoma), 10 µM, read-out: GI%): 37.5%
inhibition at 10 µM [2]: 23.4%
inhibition at 10 µM [3]: 39.1%
inhibition at 10 µM [4]: 22%
inhibition at 10 µM [5]: 32.7%
inhibition at 10 µM [6]: 11.2%
inhibition at 10 µM [7]: 23.4%
inhibition at 10 µM [8]: 5.16%
inhibition at 10 µM [9]: 40.5%
inhibition at 10 µM [10]: 80.8%
inhibition at 10 µM [11]: < 5%
inhibition at 10 µM [12]: 47.4%
inhibition at 10 µM [13]: 7.75%
inhibition at 10 µM [14]: < 5%
inhibition at 10 µM [15]: 27%
inhibition at 10 µM [16]: 22.4%
inhibition at 10 µM [17]: 14.9%
inhibition at 10 µM [18]: 52.6%
inhibition at 10 µM [19]: 52.9%
inhibition at 10 µM [20]: > 100%
inhibition at 10 µM [21]: < 5%
inhibition at 10 µM [22]: < 5%
inhibition at 10 µM [23]: 81.9%
inhibition at 10 µM [24]: 79%
inhibition at 10 µM [25]: 14.5%
inhibition at 10 µM [26]: 74.5%
